Assay results from US20050272814A1, “Medicine for prevention or treatment of diabetes” (priority 2004, published 2005).

System: C57BL/KsJdb/db mice
Assay: Hypoglycemic effect of single or combined administration in db/db mice (plasma glucose on day 14)
Type: in vivo, mouse
Conditions: for Decreasing rate: plasma glucose decrease vs control group mean
Description: As test animals, C57BL/KsJdb/db mice were used, which were created in Jackson Laboratory (USA) and known as an obesity, hyperlipemia, hyperinsulinemia, and insulin-resistant model (Journal of Clinical Investigation, 85, pp 962-967, 1990). Blood was collected from the orbital venous plexus of each 7-week-old db/db mouse using a heparin-treated capillary tube, and centrifugation was performed to collect plasma. Thereafter, the plasma glucose concentration (Glucose CII-Test Wako (Wako Pure Chemical Industries, Ltd.)), the insulin concentration (Lebis Insulin Kit: for mouse-T (SHIBAYAGI)), and the triglyceride concentration (Triglyceride E-Test Wako (Wako Pure Chemical Industries, Ltd.)) were measured for classification. The classification was performed so that distribution of each measurement item is uniform for each group by block allocation based on many variables in which the plasma glucose concentration is most emphasized using the measured values of the plasma glucose concentration, the body weight, the insulin concentration, and the triglyceride concentration. […] Two hours after the administration of the medicines on the 14th day from the beginning day of the administration, blood was collected from the orbital venous plexus, and the plasma thereof was collected to measure the plasma glucose concentration. […] Each plasma glucose concentration is expressed as mean±standard deviation for 6 mice of each group. Each decreasing rate is calculated from ((mean of plasma glucose concentration of control group)−(mean of plasma glucose concentration of each group))/(mean of plasma glucose concentration of control group)×100, while each relative index is calculated from (mean of plasma glucose concentration of each group)/(mean of plasma glucose concentration of control group).

With `CN(C)C(=N)NC(=N)N.Cl` [Metformin, 1,1-Dimethylbiguanide hydrochloride, reference compound] the Decreasing rate (300 mg/kg oral once a day for 14 days) was 3%.
`O=C([O-])C(Cl)(Cl)CCCCCCCCCCc1ccc(Cl)cc1.[Na+]` [sodium 2,2-dichloro-12-(4-chlorophenyl)-dodecanoate] showed a Relative index (3 mg/kg oral once a day for 14 days, mean plasma glucose of group / control group) of 0.89, a Plasma glucose concentration (3 mg/kg oral once a day for 14 days, plasma 2 h after dosing on day 14, mean ± SD, 6 mice) of 241 ± 116 mg/dL and a Decreasing rate (3 mg/kg oral once a day for 14 days) of 11%. For the same compound, the “Decreasing effect for the plasma glucose concentration (in words)” value (single administration 3 mg/kg, 14 days, compared with normal db/+m mouse level (187±16)) was “insufficient”.
